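Growth conditions: 96-well plates. Treatment: test compound, 48 hours, 5 concentrations. Analysis: linear interpolation between bracketing concentrations; unreached endpoints set to highest concentration. The concentration for 50% growth inhibition is given as GI50.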 Active and inactive are the calls of the source. No stated cut-off is given here; in the data, active = GI50 up to about 1.1 µM and inactive = higher.
Columns and labels:
Assay in all cases: NCI anticancer screen, dose series, 48 h
BT-549 = test system: BT-549
MDA-N = test system: MDA-N
DLD-1 = test system: DLD-1
DMS-273 = test system: DMS-273
M19-MEL = test system: M19-MEL
SNB-78 = test system: SNB-78
HOP-18 = test system: HOP-18
KM-20L2 = test system: KM-20L2

O=C(Nc1cnc(O)nc1O)Oc1ccccc1
GI50 (BT-549): > 100 µM (inactive) | GI50 (MDA-N): > 100 µM (inactive)

CO[C@H]1C[C@@H]2CC[C@@H](C)[C@@](O)(O2)C(=O)C(=O)N2CCCC[C@H]2C(=O)O[C@H]([C@H](C)C[C@@H]2CC[C@@H](OC(=O)C(C)(CO)CO)[C@H](OC)C2)CC(=O)[C@H](C)/C=C(\C)[C@@H](O)[C@@H](OC)C(=O)[C@H](C)C[C@H](C)/C=C/C=C/C=C/1C [TEMSIROLIMUS]
GI50 (BT-549): 0.00904 µM (active) | GI50 (MDA-N): 4.03 µM (inactive)

N#Cc1c(N)c2c(c(-c3ccccc3)c1-c1ccccc1)C(=O)N(Nc1ccccc1)C2=O
GI50 (BT-549): 56.1 µM (inactive) | GI50 (MDA-N): 36.8 µM (inactive)

Cc1cc2c3ccccc3n(C)c2c2c1C(=O)C=CC2=O
GI50 (BT-549): 13.9 µM (inactive) | GI50 (DLD-1): 12.7 µM (inactive) | GI50 (DMS-273): 13.3 µM (inactive) | GI50 (M19-MEL): 18.2 µM (inactive) | GI50 (MDA-N): 12.9 µM (inactive) | GI50 (SNB-78): 17.4 µM (inactive)

Cc1cc(NS(=O)(=O)c2ccc(Nc3c4ccccc4nc4c(C(=O)Nc5ccc(S(=O)(=O)N=C(N)N)cc5)ccc(Cl)c34)cc2)no1
GI50 (DLD-1): 47.3 µM (inactive) | GI50 (DMS-273): 40.6 µM (inactive) | GI50 (HOP-18): 16.4 µM (inactive) | GI50 (KM-20L2): 98.4 µM (inactive) | GI50 (M19-MEL): 39.8 µM (inactive) | GI50 (SNB-78): 23.4 µM (inactive)

CC1OC(O[C@H]2CC[C@]3(C=O)[C@H]4CC[C@]5(C)[C@H](C6=CC(=O)OC6)CC[C@]5(O)[C@@H]4C=C[C@]3(O)C2)CC(O)C1O (stereo partly specified)
GI50 (BT-549): 0.224 µM (active) | GI50 (MDA-N): 0.332 µM (active)

Cc1cc(C23OC4COC(C)(C)OC4C2OC(C)(C)O3)nc2ccccc12 (stereo unspecified)
GI50 (MDA-N): > 100 µM (inactive)

Nc1nc(Nc2ccccc2)c2[nH]cnc2n1
GI50 (MDA-N): 47.8 µM (inactive)

COc1cccc(-c2cc(O)c3cc(OC)ccc3n2)c1
GI50 (BT-549): 0.392 µM (active) | GI50 (MDA-N): 0.047 µM (active)

COc1ccc(C(=O)NCCC2=CCCCC2)cc1
GI50 (DLD-1): > 100 µM (inactive) | GI50 (DMS-273): > 100 µM (inactive) | GI50 (HOP-18): > 100 µM (inactive) | GI50 (KM-20L2): > 100 µM (inactive) | GI50 (M19-MEL): > 100 µM (inactive) | GI50 (SNB-78): > 100 µM (inactive)

COc1ccc(C[C@@H](C(=O)O[C@H](C)[C@H](NC(=O)[C@@H](CC(C)C)N(C)C(=O)C2CCCN2C(=O)[C@H](C)O)C(=O)N2CCCCNC(=O)[C@@H](C)C(=O)[C@H](C(C)C)OC(=O)C[C@H](O)[C@H]2CC(C)C)N(C)C(C)=O)cc1 (stereo partly specified)
GI50 (BT-549): 17.5 µM (inactive)

CCOC(=O)CCC(C(=O)OCC)n1nnc2cc(Nc3c(C)[n+]([O-])c4cc(F)c(OCC)cc4[n+]3[O-])ccc21 (stereo unspecified)
GI50 (BT-549): > 100 µM (inactive) | GI50 (MDA-N): > 100 µM (inactive)

CCC(=O)Oc1ccc2c(c1)c(=O)c1c(NCCCN(C)C)ccc3nnn2c31
GI50 (BT-549): 12.3 µM (inactive) | GI50 (MDA-N): 3.86 µM (inactive)

CSCCCNC(=O)c1csc(-c2csc(CCNC(=O)CNC(=O)OC(C)(C)C)n2)n1
GI50 (BT-549): 35.4 µM (inactive) | GI50 (MDA-N): > 100 µM (inactive)

Cc1cc2c(cc1Cl)SC(NNCCO)=NS2(=O)=O
GI50 (BT-549): > 100 µM (inactive)

CC(=O)O[C@H]1C(=O)[C@@]2(C)C([C@H](OC(=O)c3ccccc3)[C@]3(O)C[C@H](OC(=O)[C@H](O)[C@@H](NC(=O)c4ccc(Cl)cc4)c4ccccc4)C(C)=C1C3(C)C)C1(OC(C)=O)CO[C@@H]1C[C@@H]2O (stereo partly specified)
GI50 (BT-549): 0.0643 µM (active) | GI50 (DLD-1): 0.0222 µM (active) | GI50 (KM-20L2): < 0.01 µM (active) | GI50 (M19-MEL): < 0.01 µM (active) | GI50 (MDA-N): 0.00665 µM (active)

COCc1cc2c(cc1/C=C/[N+](=O)[O-])OCO2
GI50 (MDA-N): 17.7 µM (inactive)

CC1=NN2C=Nc3c(c(-c4ccc(Cl)cc4)cn3-c3ccc(C)cc3)C2N1 (stereo unspecified)
GI50 (BT-549): > 100 µM (inactive) | GI50 (MDA-N): > 100 µM (inactive)

CCCCCC(=O)Nc1nc(O)c2[nH]cnc2n1
GI50 (DLD-1): > 100 µM (inactive) | GI50 (DMS-273): > 100 µM (inactive) | GI50 (HOP-18): > 100 µM (inactive) | GI50 (KM-20L2): > 100 µM (inactive) | GI50 (M19-MEL): > 100 µM (inactive) | GI50 (SNB-78): > 100 µM (inactive)

COC(=O)/C=C/c1cc(O)c2c(c1)[C@H](C(=O)OC)[C@@H](c1ccc(O)c(O)c1)O2
GI50 (MDA-N): 0.0122 µM (active)

COc1cccc2c1CCc1sc(CN3CCN(C)CC3)nc1-2
GI50 (BT-549): > 100 µM (inactive) | GI50 (MDA-N): 55.5 µM (inactive)

COc1cccc(Nc2nc(-c3cccs3)nc3cc(OC)c(OC)cc23)c1
GI50 (BT-549): 25.9 µM (inactive)

Cc1ccc2nc3ccccc3c(C3C4C(=O)N(c5ccc(Br)cc5Cl)C(=O)C4ON3C(C(N)=O)c3ccccc3)c2c1 (stereo unspecified)
GI50 (MDA-N): 6.9 µM (inactive)

CC(=O)OC1CC2(C)C(=CC1C1SCCS1)CCC1C2CCC2(C)C(OC(C)=O)CCC12 (stereo unspecified)
GI50 (BT-549): > 100 µM (inactive) | GI50 (MDA-N): > 100 µM (inactive)

CCn1c(CSc2nc(-c3ccccc3)c(-c3ccccc3)[nH]2)n[nH]c1=S
GI50 (DLD-1): > 100 µM (inactive) | GI50 (DMS-273): > 100 µM (inactive) | GI50 (KM-20L2): > 100 µM (inactive) | GI50 (M19-MEL): > 100 µM (inactive) | GI50 (SNB-78): > 100 µM (inactive)

Cc1ccc(-c2cc(-c3ccco3)c(C#N)c(O)n2)cc1
GI50 (DLD-1): > 100 µM (inactive) | GI50 (DMS-273): > 100 µM (inactive) | GI50 (HOP-18): 13.3 µM (inactive) | GI50 (KM-20L2): > 100 µM (inactive) | GI50 (M19-MEL): > 100 µM (inactive) | GI50 (SNB-78): > 100 µM (inactive)

Nc1ccc(Oc2ccc(C34CC5CC6C3CC3CC4C(C5)C6(c4ccc(Oc5ccc(N)cc5)cc4)C3)cc2)cc1
GI50 (BT-549): 34.4 µM (inactive) | GI50 (MDA-N): 0.334 µM (active)

C/C(=C\COP(=O)(O)OP(=O)(O)O)CCCCCCOCc1ccccc1
GI50 (BT-549): > 100 µM (inactive)

CCOC(=O)[C@@H]1CCN2CN(c3ccc(OC)cc3)N=C(c3ccccc3)[C@@]12c1ccccc1
GI50 (BT-549): 21.4 µM (inactive) | GI50 (MDA-N): 23.2 µM (inactive)

S=C1OC2C3C4CC5C3C(O1)C1C5C4C21 (stereo unspecified)
GI50 (DLD-1): > 100 µM (inactive) | GI50 (DMS-273): 89.1 µM (inactive) | GI50 (HOP-18): > 100 µM (inactive) | GI50 (KM-20L2): > 100 µM (inactive) | GI50 (M19-MEL): > 100 µM (inactive) | GI50 (SNB-78): > 100 µM (inactive)

From ChEMBL document CHEMBL1201862, “PubChem BioAssay data set” (2004)
